Patent US20050101595A1, “N-containing cycloalkyl-substituted amino-thiazole derivatives and pharmaceutical compositions for inhibiting cell proliferation and methods for their use” (PFIZER INC., priority 2003, published 2005)
Counter-ions that a name gives are not always drawn. Like-named read-outs stand apart in the source and are kept apart here.

How the values were obtained:
CDK2/Cyclin A = CDK2/Cyclin A (Homo sapiens, UniProt P24941); assay: Inhibition of CDK2/Cyclin A Retinoblastoma Kinase Activity; assay type: biochemical; details: for Ki: apparent Ki, CDK2/proteolyzed cyclin A, Rb fragment substrate, 25 μM ATP; for inhibition at 0.05 µM: read-out: % inhibition of CDK2 (@ 0.05 μM), compound at 0.05 μM
Summary of the method: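 Baculovirus-expressed CDK2 complexed with proteolyzed cyclin A (10 or 19 nM), Rb fragment substrate, 25 μM [32P/33P]ATP, HEPES pH 7.4, 30 °C for 60 or 75 min under initial-rate conditions. Filter capture and phosphorimager readout; apparent Ki fitted to competitive or tight-binding competitive inhibition.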

[1] = molecular target: human CDK4 and genetically truncated (1-264) cyclin D3 (Homo sapiens, UniProt P11802); assay: Inhibition of CDK4/Cyclin D Retinoblastoma Kinase Activity; assay type: biochemical; details: apparent Ki, CDK4/truncated cyclin D3, Rb fragment substrate, 25 μM ATP
Procedure: Cyclin-dependent kinase activity was measured by quantifying the enzyme-catalyzed, time-dependent incorporation of radioactive phosphate from [^32P]ATP or [^33P]ATP into a protein substrate. Unless noted otherwise, assays were performed in 96-well plates in a total volume of 50 μL, in the presence of 10 mM HEPES (N-[2-hydroxyethyl]piperazine-N′-[2-ethanesulfonic acid]) (pH 7.4), 10 mM MgCl2, 25 μM adenosine triphosphate (ATP), 1 mg/mL ovalbumin, 5 μg/mL leupeptin, 1 mM dithiothreitol, 10 mM β-glycerophosphate, 0.1 mM sodium vanadate, 1 mM sodium fluoride, 2.5 mM ethylene glycol-bis(β-aminoethyl ether)-N,N,N′N′-tetraacetic acid (EGTA), 2% (v/v) dimethylsulfoxide, and 0.03-0.4 μCi [^32/33P]ATP per reaction. Reactions were initiated with enzyme, incubated at 30° C., and terminated after 20 minutes by the addition of ethylenediaminetetraacetic acid (EDTA) to 250 mM. The phosphorylated substrate was then captured on a nitrocellulose or phosphocellulose membrane using a 96-well filtration manifold, and unincorporated radioactivity was removed by repeated washing with 0.85% phosphoric acid. Radioactivity was quantified by exposing the dried membranes to a phosphorimager.
Inhibition was measured relative to control wells that contained all reaction components including 2% (v/v) DMSO but no compound, after subtraction of background radioactivity measured in the absence of enzyme. Apparent Ki values of discrete compounds were measured by assaying enzyme activity in the presence of different inhibitor compound concentrations and subtracting the background radioactivity measured in the absence of enzyme. The kinetic parameters (kcat, Km for ATP) were measured for each enzyme under the usual assay conditions by determining the dependence of initial rates on ATP concentration. Inhibition data were fit to an equation for competitive inhibition using Kaleidagraph (Synergy Software), or were fit to an equation for competitive tight-binding inhibition using the software KineTic (BioKin, Ltd.).
Inhibition of CDK4/Cyclin D Retinoblastoma Kinase Activity:
A complex of human CDK4 and genetically truncated (1-264) cyclin D3 was purified using traditional biochemical chromatographic techniques from insect cells that had been co-infected with the corresponding baculovirus expression vectors (see e.g., Meijer and Kim, “Chemical Inhibitors of Cyclin-Dependent Kinases,” Methods in Enzymol,. vol. 283 (1997), pp. 113-128.). The enzyme complex (5 nM) was assayed with 0.3-0.5 μg of purified recombinant retinoblastoma protein fragment (Rb) as a substrate. The engineered Rb fragment (residues 386-928 of the native retinoblastoma protein; 62.3 kDa) contains the majority of the phosphorylation sites found in the native 106-kDa protein, as well as a tag of six histidine residues for ease of purification. Phosphorylated Rb substrate was captured by microfiltration on a nitrocellulose membrane and quantified using a phosphorimager as described above. For measurement of tight-binding inhibitors, the assay duration was extended to 60 minutes, during which the time-dependence of product formation was linear and initial rate conditions were met.

HCT-116 cell line = assay: Inhibition of cell growth, tetrazolium salt (MTT) assay; assay type: cell-based; details: MTT; for IC50 / inhibition at 0.175 µM: Homo sapiens; for IC50: HCT-116, 120 h, three to five days, read-out: HCT-116 IC50; for inhibition at 0.175 µM: HCT-116, HCT-116 cells
Summary of the method: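 McCoy's 5A cultures; 4 h pre-incubation; compound dilutions in 0.5% v/v DMSO; 3–5 d, 37° C, 5% CO2; MTT 0.2 mg/mL final, 4 h; formazan dissolved in DMSO, A540; vs 0.5% DMSO vehicle.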

Chain of human CDK4 and genetically truncated (1-264) cyclin D3 (P11802 whole entry, the tested form may be a part): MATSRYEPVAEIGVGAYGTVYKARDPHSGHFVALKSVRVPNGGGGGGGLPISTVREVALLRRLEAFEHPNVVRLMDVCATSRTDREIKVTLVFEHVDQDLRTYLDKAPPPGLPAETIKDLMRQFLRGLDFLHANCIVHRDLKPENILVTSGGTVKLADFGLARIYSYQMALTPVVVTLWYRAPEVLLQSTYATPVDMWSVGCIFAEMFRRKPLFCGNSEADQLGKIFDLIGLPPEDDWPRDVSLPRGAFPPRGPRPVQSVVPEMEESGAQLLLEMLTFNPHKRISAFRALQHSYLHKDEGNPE
Chain of human CDK4 and genetically truncated (1-264) cyclin D3 (P30281 1-264 partner): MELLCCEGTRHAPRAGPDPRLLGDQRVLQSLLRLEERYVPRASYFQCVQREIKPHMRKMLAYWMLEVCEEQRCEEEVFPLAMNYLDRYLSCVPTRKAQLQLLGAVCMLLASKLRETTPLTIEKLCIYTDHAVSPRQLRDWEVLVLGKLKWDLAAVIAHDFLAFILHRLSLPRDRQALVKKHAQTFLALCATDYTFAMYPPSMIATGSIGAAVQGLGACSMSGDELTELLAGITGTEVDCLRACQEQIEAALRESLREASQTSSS

SMILES: N#Cc1ccc(S(=O)(=O)N2CCC(Nc3nc(N)c(C(=O)c4c(F)cccc4F)s3)C2)cc1 (stereo not drawn) [Example F38, 4-{3-[4-Amino-5-(2,6-difluoro-benzoyl)-thiazol-2-ylamino]-pyrrolidine-1-sulfonyl}-benzonitrile]
- Ki (CDK2/Cyclin A): 99 nM
- Ki [1]: 360 nM

SMILES: N#Cc1ccc(S(=O)(=O)N2CC[C@H](Nc3nc(N)c(C(=O)c4c(F)cccc4F)s3)C2)cc1 [Example F40, 4-{3S-[4-Amino-5-(2,6-difluoro-benzoyl)-thiazol-2-ylamino]-pyrrolidine-1-sulfonyl}-benzonitrile]
- Ki (CDK2/Cyclin A): 58 nM
- Ki [1]: 380 nM

SMILES: Nc1nc(NC2CCN(C(=O)c3ccc(Br)cc3)C2)sc1C(=O)c1c(F)cccc1F (stereo not drawn) [Example C18, {4-Amino-2-[1-(4-bromo-benzoyl)-pyrrolidin-3-ylamino]-thiazol-5-yl}-(2,6-difluoro-phenyl)-methanone]
- Ki (CDK2/Cyclin A): 77 nM
- Ki [1]: 210 nM

SMILES: Nc1nc(NC2CCN(S(=O)(=O)CCN3CCC(c4ccccc4)C3)CC2)sc1C(=O)c1c(F)cccc1F (stereo not drawn) [Example N5, (4-Amino-2-{1-[2-(3-phenyl-pyrrolidin-1-yl)-ethanesulfonyl]-piperidin-4-ylamino}-thiazol-5-yl)-(2,6-difluoro-phenyl)-methanone Hydrochloride Salt.]
- Ki (CDK2/Cyclin A): 1.8 nM
- Ki [1]: 1.5 nM

SMILES: CS(=O)(=O)N1CCC(Nc2nc(N)c(C(=O)c3c(F)cccc3F)s2)C1 (stereo not drawn) [Example F39, [4-Amino-2-(1-methanesulfonyl-pyrrolidin-3-ylamino)-thiazol-5-yl]-(2,6-difluoro-phenyl)-methanone]
- Ki (CDK2/Cyclin A): 520 nM
- Ki [1]: 330 nM

SMILES: CC1(C)CC(Nc2nc(N)c(C(=O)c3c(F)cccc3F)s2)CC(C)(C)N1 [Example A2, [4-Amino-2-(2,2,6,6-tetramethyl-piperidin-4-ylamino)-thiazol-5-yl]-(2,6-difluoro-phenyl)-methanone]
- Ki (CDK2/Cyclin A): > 5000 nM
- Ki [1]: > 2000 nM

SMILES: CC(C)NC(=O)N1CCC(Nc2nc(N)c(C(=O)c3c(F)cccc3F)s2)CC1 [Example B1, 4-[4-Amino-5-(2,6-difluoro-benzoyl)-thiazol-2-ylamino]-piperidine-1-carboxylic Acid Isopropylamide]
- Ki (CDK2/Cyclin A): 410 nM
- Ki [1]: 380 nM

SMILES: Nc1nc(NC2CCN(S(=O)(=O)c3cncc(Cl)n3)CC2)sc1C(=O)c1c(F)cccc1F [Example F49, {4-Amino-2-[1-(6-chloro-pyrazine-2-sulfonyl)-piperidin-4-ylamino]-thiazol-5-yl}-(2,6-difluoro-phenyl)-methanone]
- Ki (CDK2/Cyclin A): 0.46 nM
- Ki [1]: 1.1 nM

SMILES: COc1ccc(Cl)cc1C(=O)N1CCC(Nc2nc(N)c(C(=O)c3c(F)cccc3F)s2)CC1 [Example D19, {4-Amino-2-[1-(5-chloro-2-methoxy-benzoyl)-piperidin-4-ylamino]-thiazol-5-yl}-(2,6-difluoro-phenyl)-methanone]
- Ki (CDK2/Cyclin A): 105 nM
- Ki [1]: 79 nM

SMILES: Nc1nc(NC2CCN(S(=O)(=O)CCCn3ccnn3)CC2)sc1C(=O)c1c(F)cccc1F [Example K3, 1-{4-Amino-2-[1-(3-triazol-1-yl-propane-1-sulfonyl)-piperidin-4-ylamino]-thiazol-5-yl}-1-(2,6-difluoro-phenyl)-methanone.]
- Ki (CDK2/Cyclin A): 4.4 nM
- Ki [1]: 4 nM

SMILES: CCOC(=O)N1CCC(Nc2nc(N)c(C(=O)c3c(F)cccc3F)s2)CC1 [Example A1, 4-[4-Amino-5-(2,6-difluoro-benzoyl)-thiazol-2-ylamino]-piperidine-1-carboxylic Acid Ethyl Ester]
- Ki (CDK2/Cyclin A): 190 nM
- Ki [1]: 82 nM

SMILES: Nc1nc(NC2CCN(S(=O)(=O)c3ccc(-n4ccnc4)cc3)CC2)sc1C(=O)c1c(F)cccc1F [Example G30, 1-{4-Amino-2-[1-(4-imidazol-1-yl-benzenesulfonyl)-piperidin-4-ylamino]-thiazol-5-yl}-1-(2,6-difluoro-phenyl)-methanone]
- Ki (CDK2/Cyclin A): 0.31 nM
- Ki [1]: 0.45 nM

SMILES: COc1ccccc1/C=C\C(=O)N1CCC(Nc2nc(N)c(C(=O)c3c(F)cccc3F)s2)CC1 [Example D18, 1-{4-[4-Amino-5-(2,6-difluoro-benzoyl)-thiazol-2-ylamino]-piperidin-1-yl}3(Z)-(2-methoxy-phenyl)-propenone]
- Ki (CDK2/Cyclin A): 54 nM
- Ki [1]: 18 nM

SMILES: Nc1nc(NC2CCN(S(=O)(=O)c3ccc(Cl)nc3)CC2)sc1C(=O)c1c(F)cccc1F [Example F21, 1-(4-Amino-2-[1-(6-chloro-pyridine-3-sulfonyl)-piperidin-4-ylamino]-thiazol-5-yl}-1-(2,6-difluoro-phenyl)-methanone]
- Ki (CDK2/Cyclin A): 1.7 nM
- Ki [1]: 2.5 nM

SMILES: CS(=O)(=O)N1CC[C@H](Nc2nc(N)c(C(=O)c3c(F)cccc3F)s2)C1 [Example F41, [4-3S-Amino-2-(1-methanesulfonyl-pyrrolidin-3-ylamino)-thiazol-5-yl]-(2,6-difluoro-phenyl)-methanone]
- Ki (CDK2/Cyclin A): 750 nM
- Ki [1]: 1600 nM

SMILES: CC(=O)/C=C/C(=O)N1CCC(Nc2nc(N)c(C(=O)c3c(F)cccc3F)s2)CC1 [Example D16, 1-{4-[4-Amino-5-(2,6-difluoro-benzoyl)-thiazol-2-ylamino]-piperidin-1-yl}-pent-2(E)-ene-1,4-dione]
- IC50 (HCT-116 cell line; first HCT-116 column (c4)): 82 nM
- IC50 (HCT-116 cell line; second HCT-116 column (c5)): 150 nM
- Ki [1]: 140 nM

SMILES: CN(C)S(=O)(=O)N1CCC(Nc2nc(N)c(C(=O)c3c(F)cccc3F)s2)CC1 [Example E1, 4-[4-Amino-5-(2,6-difluoro-benzoyl)-thiazol-2-ylamino]-piperidine-1-sulfonic acid dimethylamide]
- Ki (CDK2/Cyclin A): 14 nM
- Ki [1]: 22 nM

SMILES: Nc1nc(NC2CCN(S(=O)(=O)CCCNc3ccc4ccccc4n3)CC2)sc1C(=O)c1c(F)cccc1F [Example V110]
- inhibition at 0.05 µM (CDK2/Cyclin A): 67%
- inhibition at 0.175 µM (HCT-116 cell line; compound at 0.175 uM): 2%

SMILES: Nc1nc(NC2CCN(S(=O)(=O)CCCN3CCCCCC3)CC2)sc1C(=O)c1c(F)cccc1F [Example V37]
- % inhibition of CDK2 (@ 0.05 μM) (CDK2/Cyclin A; compound at 0.05 μM, 0.05 µM): 85%
- % inhibition HCT-116 in MTT @ 0.175 uM (HCT-116 cell line; HCT-116 cells, compound at 0.175 uM, 0.175 µM): 65%

SMILES: Nc1nc(NC2CCN(S(=O)(=O)CCCNc3ccc4cccc(O)c4n3)CC2)sc1C(=O)c1c(F)cccc1F [Example V142]
- inhibition at 0.05 µM (CDK2/Cyclin A): 80%
- inhibition at 0.175 µM (HCT-116 cell line; compound at 0.175 uM): 0%

SMILES: Nc1nc(NC2CCN(S(=O)(=O)CCCNCCC3=CCCCC3)CC2)sc1C(=O)c1c(F)cccc1F [Example V49]
- inhibition at 0.05 µM (CDK2/Cyclin A): 91%
- inhibition at 0.175 µM (HCT-116 cell line; compound at 0.175 uM): 38%

SMILES: Nc1cccc(CNCCCS(=O)(=O)N2CCC(Nc3nc(N)c(C(=O)c4c(F)cccc4F)s3)CC2)c1 [Example V149]
- inhibition at 0.05 µM (CDK2/Cyclin A): 92%
- inhibition at 0.175 µM (HCT-116 cell line; compound at 0.175 uM): 0%

SMILES: CCN(CCCCO)CCCS(=O)(=O)N1CCC(Nc2nc(N)c(C(=O)c3c(F)cccc3F)s2)CC1 [Example V108]
- inhibition at 0.05 µM (CDK2/Cyclin A): 79%
- inhibition at 0.175 µM (HCT-116 cell line; compound at 0.175 uM): 2%

SMILES: CC(C)[C@H](CO)NCCCS(=O)(=O)N1CCC(Nc2nc(N)c(C(=O)c3c(F)cccc3F)s2)CC1 [Example V70]
- inhibition at 0.05 µM (CDK2/Cyclin A): 89%
- inhibition at 0.175 µM (HCT-116 cell line; compound at 0.175 uM): 2%

SMILES: CN(CCCS(=O)(=O)N1CCC(Nc2nc(N)c(C(=O)c3c(F)cccc3F)s2)CC1)Cc1ccccc1 [Example V13]
- inhibition at 0.05 µM (CDK2/Cyclin A): 90%
- inhibition at 0.175 µM (HCT-116 cell line; compound at 0.175 uM): 79%
